Test results as given in BigSolDB 2.1.

COc1ccc2c(c1)c(CC(=O)O)c(C)n2C(=O)c1ccc(Cl)cc1
solubility (mole fraction)
Details | 293.15 K | 298.15 K | 303.15 K | 308.15 K | 313.15 K
in 1,4-dioxane | 0.0249 | 0.029 | 0.0343 | 0.0416 | 0.0477
in water | 7.81e-07 | 9.32e-07 | 1.1e-06 | 1.27e-06 | 1.52e-06
